Measured values reported in patent US10463651B2, “3-(1H-pyrrolo[3,2-C]pyridin-2-YL)-1H-indazoles and therapeutic uses thereof” (Samumed, LLC, priority 2015, dated 2019).

Columns and labels:
Format in all cases: cell-based
[1] = tested on: Wnt activity (Sp5-Luc reporter, SW480 colon carcinoma cells); test: Screening assay for Wnt activity (Sp5-Luc reporter gene assay in SW480 cells); conditions: Homo sapiens; for EC50: Sp5-Luc reporter, SW480 cells, incubated overnight
From the text: The screening assay for Wnt activity is described as follows. Reporter cell lines can be generated by stably transducing cancer cell lines (e.g., colon cancer) or primary cells (e.g., IEC-6 intestinal cells) with a lentiviral construct that includes a Wnt-responsive promoter driving expression of the firefly luciferase gene.
SW480 colon carcinoma cells were transduced with a lentiviral vector expressing luciferase with a human Sp5 promoter consisting of a sequence of eight TCF/LEF binding sites. SW480 cells stably expressing the Sp5-Luc reporter gene and a hygromycin resistance gene were selected by treatment with 150 μg/mL of hygromycin for 7 days. These stably transduced SW480 cells were expanded in cell culture and used for all further screening activities. […] For Sp5-Luc reporter gene assays, the cells were plated at 4,000 cells/well in 384-well plates with medium containing 1% fetal bovine serum and incubated overnight at 37° C. and 5% CO2. Following incubation, 20 μl of BrightGlo luminescence reagent (Promega) was added to each well of the 384-well assay plates. The plates were placed on an orbital shaker for 2 min and then luminescence was quantified using the Envision (Perkin Elmer) plate reader. Readings were normalized to DMSO only treated cells, and normalized activities were utilized for EC50 calculations using the dose-response log (inhibitor) vs. response-variable slope (four parameters) nonlinear regression feature available in GraphPad Prism 5.0 (or Dotmatics).

[2] = tested on: SW480 colon cancer cells; test: Cell viability assay (CellTiter-Blue); conditions: Homo sapiens; for EC50: 96 h, SW480 cell viability, four days, CellTiter-Blue
Protocol: Representative compounds were screened using the following assay procedure to assess the effect on cell viability as described below.
Approximately 2×10^3 SW480 colon cancer cells were seeded into each well and allowed to incubate in the presence or absence of compound for four days at 37° C./5% CO2. Eight replicates of DMSO-treated cells served as controls and cells treated with compound were performed in duplicate.
After incubation, 20 μL of CellTiter-Blue (Promega) was added to each well allowed to incubate for approximately 3 hours. This reagent was a buffered solution which contains resazurin, metabolically active cells were able to reduce rezarurin (blue) into resorufin (pink) which was highly fluorescent. This measured fluorescence was used as a readout for cell viability.

[3] = tested on: primary human fibroblasts derived from IPF patients (LL29 cells) treated with TGF-β1; test: Inhibition of the fibrotic process (αSMA staining) in TGF-β1-treated fibroblasts; conditions: Fibroblast, 96 h; for EC50: % αSMA-positive LL29 cells, TGF-β1 20 ng/mL, 4 days; for inhibition at 10 µM: read-out: percent inhibition at 10 μM
Protocol: Representative compounds were screened using primary human fibroblasts (derived from IPF patients) treated with TGF-β1 to determine their ability to inhibit the fibrotic process.
LL29 cells are plated at 1,500 cells/well in 80 μL/well F12 medium supplemented with 1% Fetal Bovine Serum. […] Wells treated with TGF-P1 and containing DMSO were used as controls. […] Following incubation for 4 days, SYTOX green nucleic acid stain (Life Technologies [Thermo Fisher Scientific]) was added to the wells at a final concentration of 1 μM and incubated at room temperature for 30 min.

[4] = tested on: primary human mesenchymal stem cells (hMSCs); test: Induction of chondrogenesis in hMSCs (Rhodamine B / Nile Red nodule imaging); conditions: for Emax: maximum activity relative to TGF-β3 (10 ng/mL) positive control, read-out: Max. Activity as % TGF-β3 activity; for EC50: concentration required to induce 50% levels of chondrogenesis vs TGF-β3 positive control, read-out: Conc (nM) of 50% TGF-β3 activity
From the text: Representative compounds were screened using primary human mesenchymal stem cells (hMSCs) to determine their ability to induce chondrogenesis (process by which cartilage is developed).
Primary human mesenchymal stem cells (hMSCs) were purchased from Lonza (Walkersville, Md.) and expanded in Mesenchymal Stem Cell Growth Media (Lonza). Cells between passage 3 and 6 were used for the experiments.
Area of nodules in each well was normalized to the average of 3 DMSO treated wells on the same plate using Excel (Microsoft Inc.). The normalized averages (fold change over DMSO) of 2 or 3 replicate wells for each compound concentration were calculated. Due to solubility limitations of some of the compounds, curve fitting was incomplete leading to inaccurate EC50 determinations.
Using TGF-β3 as a positive control, the concentration of representative compounds required to induce 50% levels of chondrogenesis is reported. In addition, the maximum activity of each compound and the respective dose that each compound reached maximum chondrogenesis activity is reported.

[5] = tested on: IL-6 (THP-1 cells); test: IL-6 inhibition in LPS-stimulated THP-1 cells (HTRF); conditions: Homo sapiens; IL6 by HTRF, THP-1 cells, 500 ng/mL LPS, 22 hours
Protocol: THP-1 cells were cultured in basal media with 1% FBS for 24 hours before the start of the assay. […] THP-1 cells were plated at 5000 cells/well in the 384-well plates and incubated at 37° C. for 2 h. 500 ng/mL of LPS was added after 2 hours and cells were incubated for another 22 hours at 37° C. Plates were spun in a centrifuge for 1 minute at […] and a mixture of anti-IL6 XL665, and anti-IL6 Cryptate diluted in reconstitution buffer (Cisbio Inc.) was added to each well. Following incubation for 3 hrs at room temperature, Homogeneous Time-Resolved Fluorescence (HTRF) was measured using the Envision (Perkin Elmer) at 665 nm and […]. The ratio of fluorescence at 665 nm to 620 nm was used as a readout for IL6 quantification. All samples were processed in duplicate. Readings were normalized to DMSO treated cells and normalized activities were utilized for EC50 calculations using the dose-response log (inhibitor) vs. response-variable slope (four parameters) nonlinear regression feature available in GraphPad Prism 5.0 (or Dotmatics).

| SMILES | EC50 [1] [nM] | EC50 [2] [nM] | EC50 [5] [nM] | EC50 [4] [nM] | EC50 [3] [nM] | Emax [4] [%] | inhibition at 10 µM ([1]; SW480, read-out: percent inhibition at 10 μM) [%] | inhibition at 10 µM ([2]; SW480, 96 h, read-out: percent inhibition at 10 μM) [%] | inhibition at 10 µM [3] [%] |
| --- | --- | --- | --- | --- | --- | --- | --- | --- | --- |
| CCC(=O)Nc1cncc(-c2ccc3[nH]nc(-c4cc5c(-c6cccc(F)c6)nccc5[nH]4)c3c2)c1 [Compound 1, N-(5-(3-(4-(3-Fluorophenyl)-1H-pyrrolo[3,2-c]pyridin-2-yl)-1H-indazol-5-yl)pyridin-3-yl)propionamide] | 45 | 102 | 35 | – | 41 | 16 | – | – | – |
| Fc1cccc(-c2nccc3[nH]c(-c4n[nH]c5ccc(-c6cccnc6)cc45)cc23)c1 [Compound 4, 3-(4-(3-Fluorophenyl)-1H-pyrrolo[3,2-c]pyridin-2-yl)-5-(pyridin-3-yl)-1H-indazole] | 140 | 453 | 164 | – | 44 | 32 | – | – | – |
| CN(C)Cc1cncc(-c2ccc3[nH]nc(-c4cc5c(-c6cccc(F)c6)nccc5[nH]4)c3c2)c1 [Compound 13, 1-(5-(3-(4-(3-Fluorophenyl)-1H-pyrrolo[3,2-c]pyridin-2-yl)-1H-indazol-5-yl)pyridin-3-yl)-N,N-dimethylmethanamine] | 2940 | 776 | 383 | – | 2760 | 42 | – | – | – |
| CCCC(=O)Nc1cncc(-c2ccc3[nH]nc(-c4cc5c(-c6cccc(F)c6)nccc5[nH]4)c3c2)c1 [Compound 17, N-(5-(3-(4-(3-Fluorophenyl)-1H-pyrrolo[3,2-c]pyridin-2-yl)-1H-indazol-5-yl)pyridin-3-yl)butyramide] | 50 | 93 | 34 | 2700 | 19 | 106 | – | – | – |
| O=C(Nc1cncc(-c2ccc3[nH]nc(-c4cc5c(-c6cccc(F)c6)nccc5[nH]4)c3c2)c1)C1CC1 [Compound 20, N-(5-(3-(4-(3-Fluorophenyl)-1H-pyrrolo[3,2-c]pyridin-2-yl)-1H-indazol-5-yl)pyridin-3-yl)cyclopropanecarboxamide] | 50 | 179 | 39 | 2700 | 167 | 91 | – | – | – |
| Fc1cccc(-c2nccc3[nH]c(-c4n[nH]c5ccc(-c6cncc(CN7CCC(F)(F)C7)c6)cc45)cc23)c1 [Compound 26, 5-(5-((3,3-Difluoropyrrolidin-1-yl)methyl)pyridin-3-yl)-3-(4-(3-fluorophenyl)-1H-pyrrolo[3,2-c]pyridin-2-yl)-1H-indazole] | 125 | 293 | 142 | 10 | 169 | 228 | – | – | – |
| CN(C)Cc1cncc(-c2ccc3[nH]nc(-c4cc5c(-c6ccc(F)cc6)nccc5[nH]4)c3c2)c1 [Compound 41, 1-(5-(3-(4-(4-Fluorophenyl)-1H-pyrrolo[3,2-c]pyridin-2-yl)-1H-indazol-5-yl)pyridin-3-yl)-N,N-dimethylmethanamine] | > 10000 | 2990 | 9400 | – | 2650 | 46 | 55.7 | – | – |
| CCCC(=O)Nc1cncc(-c2ccc3[nH]nc(-c4cc5c(-c6ccc(F)cc6)nccc5[nH]4)c3c2)c1 [Compound 45, N-(5-(3-(4-(4-Fluorophenyl)-1H-pyrrolo[3,2-c]pyridin-2-yl)-1H-indazol-5-yl)pyridin-3-yl)butyramide] | 520 | 262 | 929 | 900 | 263 | 142 | – | – | – |
| CCNCc1cncc(-c2ccc3[nH]nc(-c4cc5c(-c6ccccc6F)nccc5[nH]4)c3c2)c1 [Compound 62, N-((5-(3-(4-(2-Fluorophenyl)-1H-pyrrolo[3,2-c]pyridin-2-yl)-1H-indazol-5-yl)pyridin-3-yl)methyl)ethanamine] | 3360 | 1280 | 2860 | 900 | 2490 | 59 | – | – | – |

Second part, led by results:

| EC50 [1] [nM] | EC50 [2] [nM] | EC50 [5] [nM] | EC50 [4] [nM] | SMILES | EC50 [3] [nM] | Emax [4] [%] | inhibition at 10 µM ([1]; SW480, read-out: percent inhibition at 10 μM) [%] | inhibition at 10 µM ([2]; SW480, 96 h, read-out: percent inhibition at 10 μM) [%] | inhibition at 10 µM [3] [%] |
| --- | --- | --- | --- | --- | --- | --- | --- | --- | --- |
| 3620 | 1410 | 9010 | 30 | Fc1ccc(-c2nccc3[nH]c(-c4n[nH]c5ccc(-c6cncc(CN7CCCC7)c6)cc45)cc23)cc1 [Compound 42, 3-(4-(4-Fluorophenyl)-1H-pyrrolo[3,2-c]pyridin-2-yl)-5-(5-(pyrrolidin-1-ylmethyl)pyridin-3-yl)-1H-indazole] | 1340 | 98 | – | – | – |
| 365 | 186 | 1080 | 900 | O=C(Nc1cncc(-c2ccc3[nH]nc(-c4cc5c(-c6ccc(F)cc6)nccc5[nH]4)c3c2)c1)C1CCC1 [Compound 49, N-(5-(3-(4-(4-Fluorophenyl)-1H-pyrrolo[3,2-c]pyridin-2-yl)-1H-indazol-5-yl)pyridin-3-yl)cyclobutanecarboxamide] | 115 | 160 | – | – | – |
| 1510 | 1050 | 1570 | 10 | Fc1ccc(-c2nccc3[nH]c(-c4n[nH]c5ccc(-c6cncnc6)cc45)cc23)cc1 [Compound 55, 3-(4-(4-Fluorophenyl)-1H-pyrrolo[3,2-c]pyridin-2-yl)-5-(pyrimidin-5-yl)-1H-indazole] | 326 | 194 | – | – | – |
| 60 | > 10000 | 9540 | 2700 | Nc1cncc(-c2ccc3[nH]nc(-c4cc5c(-c6ccccc6F)nccc5[nH]4)c3c2)c1 [Compound 59, 5-(3-(4-(2-Fluorophenyl)-1H-pyrrolo[3,2-c]pyridin-2-yl)-1H-indazol-5-yl)pyridin-3-amine] | > 10000 | 70 | – | 43.5 | 46.6 |
| 1010 | 1500 | 7620 | – | COc1cncc(-c2ccc3[nH]nc(-c4cc5c(-c6ccco6)nccc5[nH]4)c3c2)c1 [Compound 991, 3-(4-(Furan-2-yl)-1H-pyrrolo[3,2-c]pyridin-2-yl)-5-(5-methoxypyridin-3-yl)-1H-indazole] | – | 36 | – | – | – |
| 93 | 546 | 93 | – | Nc1cncc(-c2ccc3[nH]nc(-c4cc5c(N6CCCCC6)nccc5[nH]4)c3c2)n1 [Compound 992, 6-(3-(4-(Piperidin-1-yl)-1H-pyrrolo[3,2-c]pyridin-2-yl)-1H-indazol-5-yl) pyrazin-2-amine] | > 10000 | – | – | – | 0 |
